What was measured:
[1] = test system: streptococcus pneumoniae18; experiment: Curative effect on mouse with abdominal infection (ED50); type: in vivo, streptococcus pneumoniae; conditions: streptococcus pneumoniae18, challenging dose 9.6 × 10^4 CFU/0.5 ml, deaths in 7 days, Bliss
Protocol: (§1) Test method: preparation of infection bacterial liquid: taking out the test bacterial liquid which is kept in a refrigerator at −80[…] to room temperature for about 1 h, then inoculating streptococcus pneumonia, pyogenic streptococcus and enterococcus absorbing 0.1 ml bacterial liquid respectively to 2 ml MH broth (add 10% inactivated horse serum), and inoculating 0.1 ml bacterial liquid of staphylococcus aureus to 2 ml MH broth according to the same method above; putting it in an incubator at 37[…] to be cultivated for 18 h, to obtain original bacterial liquid; diluting the original bacterial liquid with 5% gastric mucin to make animals infected with 100% lethal bacteria, to obtain infection bacterial liquid.
(§2) The clinical route of administration of carrimycin is proposed to be oral administration, thus intragastric administration is adopted in carrimychin test. Levoisovalerylspiramycin I (obtained in Embodiment 1) and of crystalline compound of levoisovalerylspiramycin I (prepared in Embodiment 27) are fed to animals via […].
(§3) After the mice are infected, respectively feed each mouse 0.2 ml via intragastric administration at 0.5 to 6 h, and they have no adverse reaction. Observe the number of deaths in 7 days, and calculate the 50% effective dose (ED50) of each drug for the infected mouse and compare the protective effect of drugs by Bliss program.

[2] = test system: streptococcus pneumoniae3; experiment: as above; type: in vivo, streptococcus pneumoniae; conditions: streptococcus pneumoniae3, challenging dose 6.4 × 10^4 CFU/0.5 ml, deaths in 7 days, Bliss
Protocol: as §1, §2, §3

[3] = test system: streptococcus pneumoniae57; experiment: as above; type: in vivo, streptococcus pneumoniae; conditions: streptococcus pneumoniae57, challenging dose 8.8 × 10^4 CFU/0.5 ml, deaths in 7 days, Bliss
Protocol: as §1, §2, §3

[4] = test system: pyogenic streptococcus 102; experiment: as above; type: in vivo; conditions: pyogenic streptococcus 102, challenging dose 7.8 × 10^4 CFU/0.5 ml, deaths in 7 days, Bliss
Protocol: as §1, §2, §3

[5] = test system: pyogenic streptococcus 119; experiment: as above; type: in vivo; conditions: pyogenic streptococcus 119, challenging dose 4.9 × 10^4 CFU/0.5 ml, deaths in 7 days, Bliss
Protocol: as §1, §2, §3

[6] = test system: pyogenic streptococcus 772; experiment: as above; type: in vivo; conditions: pyogenic streptococcus 772, challenging dose 6.9 × 10^3 CFU/0.5 ml, deaths in 7 days, Bliss
Protocol: as §1, §2, §3

enterococcus32 [7] = experiment: as above; type: in vivo, enterococcus; conditions: enterococcus32, challenging dose 5.4 × 10^4 CFU/0.5 ml, deaths in 7 days, Bliss
Protocol: as §1, §2, §3

staphylococcus aureus12 [8] = experiment: as above; type: in vivo, staphylococcus aureus; conditions: staphylococcus aureus12, challenging dose 4.8 × 10^4 CFU/0.5 ml, deaths in 7 days, Bliss
Protocol: as §1, §2, §3

staphylococcus aureus16 [9] = experiment: as above; type: in vivo, staphylococcus aureus; conditions: staphylococcus aureus16, challenging dose 5.2 × 10^3 CFU/0.5 ml, deaths in 7 days, Bliss
Protocol: as §1, §2, §3

staphylococcus aureus21 [10] = experiment: as above; type: in vivo, staphylococcus aureus; conditions: staphylococcus aureus21, challenging dose 4.2 × 10^4 CFU/0.5 ml, deaths in 7 days, Bliss
Protocol: as §1, §2, §3

staphylococcus aureus76 [11] = experiment: as above; type: in vivo, staphylococcus aureus; conditions: staphylococcus aureus76, challenging dose 5.8 × 10^4 CFU/0.5 ml, deaths in 7 days, Bliss
Protocol: as §1, §2, §3

12 strains of bacteria = experiment: Protective effect on mouse infected with 12 strains of bacteria; type: in vivo; conditions: in words
Protocol: as §1, §2, §3

[12] = test system: streptococcus pneumoniae3; experiment: MIC against the infecting test organism; type: cell-based, streptococcus pneumoniae
[13] = test system: streptococcus pneumoniae18; experiment: MIC against the infecting test organism; type: cell-based, streptococcus pneumoniae
[14] = test system: streptococcus pneumoniae57; experiment: MIC against the infecting test organism; type: cell-based, streptococcus pneumoniae
[15] = test system: pyogenic streptococcus 772; experiment: MIC against the infecting test organism; type: cell-based
[16] = test system: pyogenic streptococcus 102; experiment: MIC against the infecting test organism; type: cell-based
[17] = test system: pyogenic streptococcus 119; experiment: MIC against the infecting test organism; type: cell-based
enterococcus32 [18] = experiment: MIC against the infecting test organism; type: cell-based, enterococcus
staphylococcus aureus16 [19] = experiment: MIC against the infecting test organism; type: cell-based, staphylococcus aureus
staphylococcus aureus76 [20] = experiment: MIC against the infecting test organism; type: cell-based, staphylococcus aureus
staphylococcus aureus12 [21] = experiment: MIC against the infecting test organism; type: cell-based, staphylococcus aureus
staphylococcus aureus21 [22] = experiment: MIC against the infecting test organism; type: cell-based, staphylococcus aureus
[23] = test system: streptococcus pneumoniae (112); experiment: Clinical isolates, agar double dilution method; type: cell-based
[24] = test system: pyogenic streptococcus (93); experiment: Clinical isolates, agar double dilution method; type: cell-based
enterococcus (106) = experiment: Clinical isolates, agar double dilution method; type: cell-based
[25] = test system: staphylococcus aureus (155); experiment: Clinical isolates, agar double dilution method; type: cell-based
S. epidermidis (115) = experiment: Clinical isolates, agar double dilution method; type: cell-based
[26] = test system: hemophilus influenzae (37); experiment: Clinical isolates, agar double dilution method; type: cell-based
gonococcus (10) = experiment: Clinical isolates, agar double dilution method; type: cell-based
[27] = test system: Chlamydia Trachomatis B/TW-5/OT; experiment: Chlamydia in vitro MIC, McCoy cells, immunofluorescence; type: cell-based; conditions: 48 hours
[28] = test system: Chlamydia Trachomatis D/UW-3/Cx; experiment: as above; type: cell-based; conditions: 48 hours
[29] = test system: Chlamydia Pneumoniae CWL-029; experiment: Chlamydia in vitro MIC, HEp-2 cells, immunofluorescence; type: cell-based; conditions: Chlamydia Pneumoniae CWL-029, HEp-2 cells, 72 hours
[30] = test system: Mycoplasma Urealyticum and Mycoplasma Pneumoniae strains; experiment: Mycoplasma in vitro MIC (U-PPLO broth); type: cell-based; conditions: determined 4 times, final MIC (24 h)
Protocol: 1. Test methods: adding U-PPLO 0.8 ml to each pore of aseptic 12-pore cell culture plate (adding 0.9 ml to inoculum control pore and 1.0 ml to medium control pore).
2. Add 10^4CCU/ml Uu inoculum 0.1 ml to each experimental pore. The final dose in the pore is 10^3CCU/ml (the medium control pore will not be added with inoculum).
3. Divide into 3 groups (100 μg/ml, 10 μg/ml and 1 μg/ml antibiotic stock solution), Use aseptic Tip to add antibiotic for test to each pore: 100 μl, 50 μl, 25 μl, 12.5 μl according to the double degradation concentration gradient. (The inoculum and medium control pores will not be added with the antibiotic, and meanwhile the antibiotic control pore is arranged.)
4. Blend all pores evenly. Seal the culture plate by tapes and place it in a 37[…] box for culture.
5. On 17-24 hours after the test, observe and record the Uu growth situation. When Uu inoculum control pore presents a positive growth, the minimal antibiotic concentration, which can suppress the growth of Uu, is the MIC of sample.

[31] = in vivo; cited from earlier work

In the case of `COC1C(O)CC(=O)OC(C)C/C=C/C=C/C(OC2CCC(N(C)C)C(C)O2)C(C)CC(CC=O)C1OC1OC(C)C(OC2CC(C)(O)C(OC(=O)CC(C)C)C(C)O2)C(N(C)C)C1O` (stereo not drawn) [crystal of isovalerylspiramycin I, levoisovalerylspiramycin I], the ED50 [1] is reported as 8.65 mg/kg, the ED50 [2] is reported as 8.39 mg/kg and the ED50 [3] is reported as 12.82 mg/kg. It also gave an ED50 [4] of 60.99 mg/kg, an ED50 [5] of 54.58 mg/kg and an ED50 [6] of 23.37 mg/kg. For the same compound, the ED50 (enterococcus32 [7]) was 62.11 mg/kg, the ED50 (staphylococcus aureus12 [8]) was 107.46 mg/kg and the ED50 (staphylococcus aureus16 [9]) was 21.33 mg/kg. For the same compound, the ED50 (staphylococcus aureus21 [10]) was 38.00 mg/kg, the ED50 (staphylococcus aureus76 [11]) was 22.26 mg/kg and the “protective effect (curative effect) on infected mouse” value (shortened to “protective effect (curative effect)”) (12 strains of bacteria; listed as crystalline compound of isovalerylspiramycin I) was “better protective effect”.
`COC1C(OC(C)=O)CC(=O)OC(C)C/C=C/C=C/C(OC2CCC(N(C)C)C(C)O2)C(C)CC(CC=O)C1OC1OC(C)C(OC2CC(C)(O)C(OC(=O)CC(C)C)C(C)O2)C(N(C)C)C1O` (stereo not drawn) [crystal of isovalerylspiramycin II, levoisovalerylspiramycin II] gave an ED50 [1] of 8.09 mg/kg, an ED50 [2] of 7.69 mg/kg and an ED50 [3] of 12.04 mg/kg. For the same compound, the ED50 [4] was 58.00 mg/kg, the ED50 [5] was 49.94 mg/kg and the ED50 [6] was 21.90 mg/kg. For the same compound, the ED50 (enterococcus32 [7]) was 56.16 mg/kg, the ED50 (staphylococcus aureus12 [8]) was 104.67 mg/kg and the ED50 (staphylococcus aureus16 [9]) was 16.18 mg/kg. For the same compound, the ED50 (staphylococcus aureus21 [10]; listed as crystal of isovalcrylspiramycin II) was 36.09 mg/kg, the ED50 (staphylococcus aureus76 [11]) was 18.71 mg/kg and the “protective effect (curative effect)” value (12 strains of bacteria) was “good protective effect”.
Work on `CCC(=O)OC1CC(=O)OC(C)C/C=C/C=C/C(OC2CCC(N(C)C)C(C)O2)C(C)CC(CC=O)C(OC2OC(C)C(OC3CC(C)(O)C(OC(=O)CC(C)C)C(C)O3)C(N(C)C)C2O)C1OC` (stereo not drawn) [crystal of isovalerylspiramycin III, levoisovalerylspiramycin III] yielded an ED50 [1] of 8.68 mg/kg, an ED50 [2] of 6.45 mg/kg and an ED50 [3] of 11.08 mg/kg. The ED50 [4] was 52.91 mg/kg, the ED50 ([5]; listed as crystal of isovaletylspiramycin III) was 49.94 mg/kg and the ED50 [6] was 22.81 mg/kg. For the same compound, the ED50 (enterococcus32 [7]) was 65.89 mg/kg, the ED50 (staphylococcus aureus12 [8]) was 105.24 mg/kg and the ED50 (staphylococcus aureus16 [9]) was 19.29 mg/kg. The ED50 (staphylococcus aureus21 [10]) was 36.09 mg/kg, the ED50 (staphylococcus aureus76 [11]) was 18.71 mg/kg and the “protective effect (curative effect)” value (12 strains of bacteria) was “good protective effect”.
Compound acetyl spiramycin [reference compound] has an ED50 [1] of 37.93 mg/kg, an ED50 [2] of 66.96 mg/kg and an ED50 [3] of 398.01 mg/kg. For the same compound, the ED50 [4] was 227.07 mg/kg, the ED50 [5] was 117.53 mg/kg and the ED50 [6] was 98.11 mg/kg. The ED50 (enterococcus32 [7]) was 130.34 mg/kg, the ED50 (staphylococcus aureus12 [8]) was greater than 500 mg/kg and the ED50 (staphylococcus aureus16 [9]) was 43.58 mg/kg. It also gave an ED50 (staphylococcus aureus21 [10]) greater than 500 mg/kg, an ED50 (staphylococcus aureus76 [11]) of 66.63 mg/kg and an MIC [12] of 0.5 µg/mL. For the same compound, the MIC [13] was 0.06 µg/mL, the MIC [14] was 1 µg/mL and the MIC [15] was 0.25 µg/mL. For the same compound, the MIC [16] was 0.5 µg/mL, the MIC [17] was 0.5 µg/mL and the MIC (enterococcus32 [18]) was 1 µg/mL. It also gave an MIC (staphylococcus aureus16 [19]) of 1 µg/mL, an MIC (staphylococcus aureus76 [20]) of 1 µg/mL and an MIC (staphylococcus aureus12 [21]) of 2048 µg/mL. The MIC (staphylococcus aureus21 [22]) was 2048 µg/mL, the MIC50 [23] was 0.12 µg/mL and the MIC90 [23] was greater than 64 µg/mL. It also gave an MIC50 [24] of 0.25 µg/mL, an MIC90 [24] greater than 64 µg/mL and an MIC50 (enterococcus (106)) of 4 µg/mL. For the same compound, the MIC90 (enterococcus (106)) was greater than 64 µg/mL, the MIC50 [25] was 64 µg/mL and the MIC90 [25] was greater than 64 µg/mL. It also gave an MIC50 (S. epidermidis (115)) of 64 µg/mL, an MIC90 (S. epidermidis (115)) greater than 64 µg/mL and an MIC50 [26] of 0.12 µg/mL. For the same compound, the MIC90 [26] was 4 µg/mL, the MIC50 (gonococcus (10)) was 4 µg/mL and the MIC90 (gonococcus (10)) was 8 µg/mL. The MIC range (gonococcus (10)) was 0.12 to 64 µg/mL, the MIC [27] was 4 µg/mL and the MIC [28] was 2 µg/mL. It also gave an MIC [29] of 0.5 µg/mL and an MIC [30] of 0.5 µg/mL.
In the case of spiramycin, the “absolute bioavailability by oral administration” value [31] is given as 30˜40%.

— patent US8778896B2, “Levoisovalerylspiramycin I, II or III, preparations, preparation methods and uses thereof” (Shenyang Tonglian Group Co., Ltd., priority 2010, dated 2014)
